Experimental findings from patent publication US12054447B2, “PCNA inhibitors” (City of Hope, priority 2015, dated 2024) are described below.

Data set [1] relates to SK-N-AS. Kind of data set: Cell growth, CellTitor-Glo assay, 72 h. The class given is cell-based. To be noted: Homo sapiens. As for the experimental part:
(§1) The human NB cell lines, SK-N-DZ, SK-N-BE(2)c, SK-N-AS, and LAN-5 obtained from the American Type Culture Collection (Rockville, MD), were cultured in DMEM with 10% fetal bovine serum (FBS), 100 units/ml penicillin, and 100 μg/ml streptomycin in the presence of 5% CO2 at 37° C. Human PBMCs from a healthy donor were purchased from Sanguine BioSciences (Valencia, CA) and grown in RPMI1640 with 10% FBS, 100 units/ml penicillin, 100 μg/ml streptomycin, and 10 ng/ml IL-2 in the presence of 5% CO2 at 37° C. Human embryonic progenitor cell line 7SM0032 was acquired from Millipore (Billerica, MA) and grown in the hEPM-1 Media Kit purchased from the same company. The plasmid pCBASce expresses the rare cutting I-SceI meganuclease. The U20S-derived cell lines, DR-GFP and EJ5-GFP, each contain a stably transfected reporter gene for DSB repair mediated by HR and end joining (EJ), respectively. These cell lines were cultured in DMEM medium with 10% FBS at 37° C. in the presence of 5% CO2.
(§2) To measure the effect of the compounds on cell growth, cells were seeded at 3×10^4/ml into a 96-well plate. Once attached, cells were treated with various concentrations of AOH1160 for 72 h. Cell growth was measured by the CellTitor-Glo assay (Promega, Madison, WI) according to the manufacturer's instructions. To measure apoptosis, cells were seeded at 1×10^5/ml onto a chamber slide. Once attached, cells were treated with the 500 nM AOH1160 for 24 h. Cells were fixed and analyzed by a TUNEL assay using the TMR red in situ cell death detection kit (Roche Diagnostics, Indianapolis, IN).

Data set [2] has as its system SK-N-BE(2)c. Put plainly: Cell growth, CellTitor-Glo assay, 72 h. To be noted: Homo sapiens. In kind it is cell-based. As for the experimental part:
as §1, §2

Data set [3] relates to SK-N-DZ. Kind of data set: Cell growth, CellTitor-Glo assay, 72 h. The class given is cell-based. To be noted: Homo sapiens. As for the experimental part:
as §1, §2

Data set [4] relates to NB cell lines. Kind of data set: Cell viability assay on NB cell lines. In kind it is cell-based, human. To be noted: for concentrations that selectively kill neuroblastoma cells: FIG. 14A. As for the experimental part:
as §2
To identify small molecule compounds that target the PCNA and FEN1 interface, we started with known crystal structures of the PCNA/FEN1 complex that are available from the RCSB protein database. To improve the likelihood of identifying novel small molecules that specifically target caPCNA, we focused our virtual screen on the binding pocket in PCNA delineated by residues L126 and Y133 and screened databases consisting of more than 6.8 million chemical structures available at the AMRI. A set of 57 compounds identified by the virtual screen was acquired and further tested in a cell viability assay. A compound (AOH39) was selected for further development due to its anti-cancer activity and selectivity.

For data set [5], the system named is non-malignant cells. Kind of data set: Toxicity to non-malignant cells. The class given is cell-based. As for the experimental part:
as §2
To improve the anti-tumor potency of the compound while preserving its favorable selectivity, a series of compounds were synthesized and tested. […] The combined improvements in potency and selectivity lead to a significant improvement in the therapeutic window (FIG. 1). AOH1160 was tested in a broad range of non-malignant cells, including human primary mammary epithelial and small airway epithelial cells, and no significant toxicity was found in these cells up to a concentration of 10 μM.

Data set [6] has as its system 7SM0032. Kind of data set: Cell cycle analysis (PI, flow cytometry). In kind it is cell-based, human. To be noted: for cell cycle effect on normal cells: 7SM0032. As for the experimental part:
(§3) Cells were seeded at 1×10^5/ml in a 6-well plate. Once attached overnight, cells were treated with or without AOH1160 for 6 or 24 h. After being fixed in 60% ethanol and stained with propidium iodide (PI), cells were analyzed by flow cytometry to determine the cellular PI fluorescence intensity. The flow cytometry data were analyzed by the FlowJo program to model various cell populations.
For orientation: Flow cytometry measures light scatter and fluorescence of single cells or particles in a stream.

Data set [7] is described as follows: Liver microsome assay. The class given is in vitro ADME, human. The source says: FIG. 11. AOH1160 stability in a liver microsome assay. Liver is a major organ responsible for drug metabolism. We tested the stability of AOH1160 in a liver microsome assay. By analyzing the metabolites, we determined a major pathway responsible for AOH1160 metabolism.
Liver is a major organ responsible for drug metabolism. We tested the stability of AOH1160 in a liver microsome assay (FIG. 11). By analyzing the metabolites, we determined a major pathway responsible for AOH1160 metabolism.

For data set [8], the system named is small cell lung cancer cells. Put plainly: Killing of small cell lung cancer cells. The class given is cell-based. To be noted: FIG. 14B.
Data set [9] has as its system neuroblastoma cells (SH-SY5Y and SK-N-BE(2)c). Kind of data set: Cell cycle analysis. In kind it is cell-based. As for the experimental part: as §3
Data set [10] relates to CAKI-1. Kind of data set: NCI-60 panel test. Particulars: Homo sapiens; CAKI-1, NCI-60 5-dose study. The class given is cell-based. As for the experimental part: FIG. 7. NCI-60 panel test. The effect of AOH1160 on growth of the NCI-60 panel, which consists of 60 cancer cell lines representing 9 major cancer types, was tested in a 5-dose study. Shown are the Log IC50 values determined for each cell line. […] This study was performed by the National Institute of Cancer.
As observed in FIG. 7, the effect of AOH1160 on growth of the NCI-60 panel, which consists of 60 cancer cell lines representing 9 major cancer types, was tested in a 5-dose study. Shown are the Log IC50 values determined for each cell line.

Data set [11] relates to 7SM0032. Kind of data set: TUNEL assay (apoptosis). In kind it is cell-based, human. To be noted: 7SM0032 cells, 500 nM, 24 h. As for the experimental part: as §2
Data set [12] concerns HR-mediated DSB repair in DR-GFP cells. Put plainly: DSB repair assay, DR-GFP reporter. In kind it is cell-based. Particulars: I-SceI-induced DSB, GFP-positive cells by flow cytometry. As for the experimental part:
as §1
DR-GFP and EJ5-GFP cell lines were seeded at 2.5×10^4 cells/cm^2 in a 12-well plate. […] The HR and EJ-mediated DSB repair, indicated by the restoration of a functional GFP gene in the respective cell lines, were quantified by measuring the relative abundance of GFP-positive cells by flow cytometry 3 days after transfection.

For data set [13], the system named is replication fork extension. Put plainly: DNA fiber assay. Particulars: CldU / IdU labeling before and after treatment. In kind it is cell-based. As for the experimental part: FIGS. 3A-3B. […] Synchronized cells were sequentially incubated in the presence of CldU and IdU before and after AOH1160 treatment, respectively. Cells sequentially incubated with the same two nucleotide analogues but without AOH1160 were used as control. Images of FIG. 3A depict representative images of the labeled DNA strands from cells treated with or without AOH1160. FIG. 3B depicts the lengths of CldU (light gray) and IdU (dark gray) incorporated DNA segments measured from more than 30 independent DNA strands in cells treated with or without AOH1160 were averaged and graphed with standard deviations.

Entries after “also recorded” stand apart in the source; their conditions may differ.

For orientation: IC50 means the point on the concentration scale where inhibition reaches its midpoint. For orientation: GI50 means the concentration that inhibits growth by half. The low end stands for more potent growth inhibition, the high end for less potent growth inhibition.

As for `O=C(CNC(=O)c1cccc2ccccc12)Nc1ccccc1Oc1ccc(O)cc1` [PCNA1], the IC50 in data set [1] amounted to 157 nM; in data set [2] it was 490 nM; in data set [3] it was 467 nM.

Regarding `COc1cccc(Oc2ccccc2NC(=O)CNC(=O)c2cccc3ccccc23)c1` [PCNA7/ AOH1996], the values for the half-maximal inhibitory concentration (IC50) in [1], in [2] and in data set [3] were 125 nM, 236 nM and 288 nM, respectively. In addition, the “concentrations that selectively kill neuroblastoma cells” value in data set [4] is “below micromolar concentrations”. Further, the “toxicity to non-malignant cells” value in data set [5] (neural crest stem cells (7SM0032), hSAEC, PBMCs) is on record as “minimal toxicity to non-malignant cells”. In data set [6], the “cell cycle effect on normal cells” value is on record as “exerted little effect on normal cells”. For the same molecule, in [7] (NADPH dependent metabolism), the “stability in a liver microsome assay” value was “stable to NADPH dependent metabolism; also recorded: stable in a liver microsome assay”. Further, in data set [8], the “concentrations that selectively kill small cell lung cancer cells” value is on record as “below micromolar concentrations”. In addition, the cell cycle effect entry in data set [9] is recorded as “caused S/G2 cell cycle arrest”. For the same molecule, in [10], it took 912 nM to inhibit growth by half (GI50).

Take `O=C(CNC(=O)c1cccc2ccccc12)Nc1ccccc1Oc1cccc(O)c1` [PCNA2]: the figures for the concentration for half-maximal inhibition (IC50) in [1], in data set [2] and in data set [3] were 192 nM, 485 nM and 539 nM, respectively.

Consider `O=C(CNC(=O)c1cccc2ccccc12)Nc1ccccc1Oc1ccccc1` [AOH1160], for which the IC50 in [1] was 108 nM; in [2] it was 326 nM; in data set [3], 238 nM; in data set [4] (Homo sapiens, multiple NB cell lines, read-out: IC50 range over NB cell lines), 180 to 220 nM. Also, in data set [4], the “concentrations that selectively kill neuroblastoma cells” value is on record as “below micromolar concentrations”. For the same molecule, the “increase in compound potency over AOH39 in cell viability assays” value in [4] (NB cells) is given as 6-7 fold. Besides, the “toxicity to non-malignant cells compared with AOH39” value in data set [5] (PBMC and 7SM0032 cells) is “less toxic to non-malignant PBMC and 7SM0032 cells than AOH39”. The “concentration causing significant toxicity (none found up to)” value in data set [5] (broad range of non-malignant cells incl. human primary mammary epithelial and small airway epithelial cells) is above 10 µM. Moreover, in data set [6], the “cell cycle effect on normal cells” value is given as “exerted little effect on normal cells”. Moreover, the cell cycle effect result in [6] (7SM0032 cells, 500 nM) is “doesn't significantly change the cell cycle profiles”; in [9], “caused S/G2 cell cycle arrest”. The apoptosis entry in data set [11] was “Nor does it increase intracellular γH2A.X level (FIG. 2B) or cause apoptosis”. In addition, the “HR-mediated DSB repair” value in [12] was “blocks DNA repair in DR-GFP”. Further, in data set [13], the replication fork extension entry was “inhibition of replication fork extension”. Besides, the “metabolic pathway in liver microsomes” value in data set [7] (human liver microsomes, NADPH) is “mainly metabolized through mono- and di-hydroxylation in a NADPH-dependent manner”. The “concentrations that selectively kill small cell lung cancer cells” value in data set [8] is recorded as “below micromolar concentrations”. Moreover, the GI50 in data set [10] came out at 355 nM.

As for `COc1ccc(Oc2ccccc2NC(=O)CNC(=O)c2cccc3ccccc23)cc1` [PCNA6], the IC50 in data set [1] worked out at 91 nM; in data set [2] it was 234 nM; in [3], 271 nM.
